Here are results for 1 compound from ChEMBL document CHEMBL2417463, “Synthesis and identification of new flavonoids targeting liver X receptor β involved pathway as potential facilitators of Aβ clearance with reduced lipid accumulation” (J Med Chem, 2013).

The source made the active and inactive calls. No cut-off for these calls is given here.

Data set [1] concerns the target T1, Oxysterols receptor LXR-beta (Homo sapiens) (UniProt P55055).
T1 sequence (whole entry): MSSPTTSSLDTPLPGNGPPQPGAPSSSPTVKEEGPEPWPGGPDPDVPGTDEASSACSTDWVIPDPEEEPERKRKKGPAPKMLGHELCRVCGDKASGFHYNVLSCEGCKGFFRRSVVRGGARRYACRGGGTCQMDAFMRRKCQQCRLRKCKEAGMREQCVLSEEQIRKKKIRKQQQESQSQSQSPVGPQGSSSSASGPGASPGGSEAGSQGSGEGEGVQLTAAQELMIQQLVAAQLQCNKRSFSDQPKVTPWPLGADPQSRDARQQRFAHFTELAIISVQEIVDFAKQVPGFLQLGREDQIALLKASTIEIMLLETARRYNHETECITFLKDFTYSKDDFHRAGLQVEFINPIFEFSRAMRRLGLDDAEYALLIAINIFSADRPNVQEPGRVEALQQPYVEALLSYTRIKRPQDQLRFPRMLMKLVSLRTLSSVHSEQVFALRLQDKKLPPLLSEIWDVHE
The data set can be described thus: Agonist activity at human LXRbeta transfected in HEK293 cells at 0.1 uM after 24 hrs by luciferase reporter gene assay relative to vehicle-treated control. The data set is classed as cell-based.

The target in data set [2] is T2, Oxysterols receptor LXR-alpha (Homo sapiens) (UniProt Q13133).
T2 sequence (whole entry): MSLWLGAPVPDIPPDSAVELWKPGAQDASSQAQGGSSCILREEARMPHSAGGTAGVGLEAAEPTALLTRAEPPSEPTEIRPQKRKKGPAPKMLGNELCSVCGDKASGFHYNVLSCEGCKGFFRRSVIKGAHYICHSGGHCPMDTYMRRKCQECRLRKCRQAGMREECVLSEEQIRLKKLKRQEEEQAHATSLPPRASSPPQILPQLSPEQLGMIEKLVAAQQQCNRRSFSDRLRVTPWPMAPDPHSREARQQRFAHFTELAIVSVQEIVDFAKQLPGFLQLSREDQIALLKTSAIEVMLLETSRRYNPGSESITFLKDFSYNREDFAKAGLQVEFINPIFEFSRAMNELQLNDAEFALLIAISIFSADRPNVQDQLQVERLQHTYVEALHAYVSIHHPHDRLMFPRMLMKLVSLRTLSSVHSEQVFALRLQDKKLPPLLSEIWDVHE
The data set can be described thus: Agonist activity at human LXRalpha transfected in HEK293 cells at 1 uM after 24 hrs by luciferase reporter gene assay relative to vehicle-treated control. The data set is classed as cell-based.

Data set [3] concerns the target T2, Oxysterols receptor LXR-alpha (Homo sapiens). The data set can be described thus: Agonist activity at human LXRalpha transfected in HEK293 cells at 0.1 uM after 24 hrs by luciferase reporter gene assay relative to vehicle-treated control. Type of data set: cell-based.
The subject of data set [4] is HEK293. The data set can be described thus: Cytotoxicity against HEK293 cells assessed as inhibition of cell viability at 50 uM after 48 hrs by SRB assay relative to vehicle-treated control. Type of data set: cell-based. The following applies: human, hek293, 48 h. In general terms: In SRB staining, fixed cells bind dye roughly in proportion to their protein.
Data set [5] concerns RAW264.7. The data set can be described thus: Cytotoxicity against mouse RAW264.7 cells assessed as inhibition of cell viability at 50 uM after 48 hrs by SRB assay relative to vehicle-treated control. The data set is classed as cell-based. The conditions noted are these: raw264.7, 48 h.
Data set [6] concerns Mus musculus. The data set can be described thus: Antialzheimer activity in double transgenic B6C3 mouse overexpressing APP swedish mutant and PSEN1dE9 assessed as reduction of amyloid beta42 plaque number in hippocampus at 10 mg/kg, ip administered 3 times per week measured after 6 weeks by OC staining-based fluorescence microscopic analysis relative to vehicle-treated control. More on the design: scale not given: the % may be the effect or the level left. The conditions noted are these: route intraperitoneal. The data set is classed as functional.

For data set [7], the system named is Mus musculus. The data set can be described thus: Antialzheimer activity in double transgenic B6C3 mouse overexpressing APP swedish mutant and PSEN1dE9 assessed as reduction of amyloid beta42 plaque load in cortex at 10 mg/kg, ip administered 3 times per week measured after 6 weeks by OC staining-based fluorescence microscopic analysis relative to vehicle-treated control. The following applies: route intraperitoneal. The arrangement: scale not given: the % may be the effect or the level left. The data set is classed as functional.

In data set [8] the test system is Mus musculus. The data set can be described thus: Antialzheimer activity in double transgenic B6C3 mouse overexpressing APP swedish mutant and PSEN1dE9 assessed as reduction of amyloid beta plaque load in brain at 10 mg/kg, ip administered 3 times per week measured after 6 weeks by thioflavin S staining-based fluorescence microscopic analysis relative to vehicle-treated control. The data set is classed as functional, organism-based. More on the design: dose 10 mg/kg.

Data set [9] relates to Mus musculus. The data set can be described thus: Antialzheimer activity in double transgenic B6C3 mouse overexpressing APP swedish mutant and PSEN1dE9 assessed as upregulation of apoE protein expression in brain at 10 mg/kg, ip administered 3 times per week measured after 6 weeks by Western blot analysis relative to vehicle-treated control. The data set is classed as functional. The conditions noted are these: route intraperitoneal.

The test system of data set [10] is BV-2. The data set can be described thus: Upregulation of NEP mRNA expression in mouse BV2 cells at 0.01 to 1 uM after 18 hrs by real-time qPCR analysis. The data set is classed as functional, cell-based. (In general: Real-time PCR tracks product formation cycle by cycle.)
The subject of data set [11] is BV-2. The data set can be described thus: Upregulation of IDE mRNA expression in mouse BV2 cells at 0.01 to 1 uM after 18 hrs by real-time qPCR analysis. The data set is classed as functional, cell-based.
Data set [12] has as its target T3, Oxysterols receptor LXR-beta (Mus musculus) (UniProt Q60644).
T3 sequence (whole entry): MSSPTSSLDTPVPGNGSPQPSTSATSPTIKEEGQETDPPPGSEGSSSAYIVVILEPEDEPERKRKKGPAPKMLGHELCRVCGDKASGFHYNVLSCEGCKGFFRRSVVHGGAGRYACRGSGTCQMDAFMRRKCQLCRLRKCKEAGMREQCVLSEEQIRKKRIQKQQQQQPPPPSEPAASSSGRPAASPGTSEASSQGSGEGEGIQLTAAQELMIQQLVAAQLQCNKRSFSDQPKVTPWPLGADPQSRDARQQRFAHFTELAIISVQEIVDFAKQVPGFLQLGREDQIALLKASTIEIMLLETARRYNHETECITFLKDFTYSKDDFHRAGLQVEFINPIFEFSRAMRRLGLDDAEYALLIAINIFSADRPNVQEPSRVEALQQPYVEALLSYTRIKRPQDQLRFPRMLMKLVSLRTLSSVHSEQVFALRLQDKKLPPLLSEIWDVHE
The data set can be described thus: Agonist activity at LXRbeta in mouse BV2 cells assessed as degradation of intracellular soluble amyloid beta42 at 1 uM preincubated for 18 hrs followed by soluble amyloid beta42 addition measured after 24 hrs by ELISA relative to vehicle-treated control. The following applies: BV-2. The data set is classed as cell-based.

The target of data set [13] is T3, Oxysterols receptor LXR-beta (Mus musculus). The data set can be described thus: Agonist activity at LXRbeta in mouse RAW264.7 cells assessed as upregulation of ABCA1 protein expression at 1 uM after 18 to 48 hrs by Western blot analysis. The data set is classed as cell-based. (In general: Immunoblotting shows a protein as a band on a membrane.)

For `Cc1ccc(/C=C/C(=O)c2ccc(N)cc2O)o1`, the fold change (FC) in data set [1] was found to be 1.07; in data set [2], 1.19; in [3] it was 0.99; in [9] it was 1.6. The Activity entry in data set [4] is “Non-toxic”; in data set [5], “Non-toxic”; in [6], 20%; in data set [7] it was 30%; in data set [12], 59%. Moreover, the result in data set [8] and in [13] was Active. In addition, the outcome in data set [10] and in [11] was inactive.
